How the values were obtained:
Test in all cases: Test B preemergence/postemergence greenhouse plant response rating 0 to 10
[1] = test system: barley; assay type: in vivo, Hordeum vulgare; conditions: for Plant response rating, Barley: 0 to 10 scale
Method in brief: (§1)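 Both application timings were run together: seeds got compound preemergence, and established seedlings (two to eighteen cm) got it postemergence. Non-phytotoxic solvent carried the chemical. Ratings are visual, versus controls, at twelve to sixteen days.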

[2] = test system: barnyardgrass; assay type: in vivo, Echinochloa crus-galli; conditions: for Plant response rating, Barnyardgrass: 0 to 10 scale
Method in brief: as §1

[3] = test system: bedstraw; assay type: in vivo, Galium aparine; conditions: for Plant response rating, Bedstraw: 0 to 10 scale
Method in brief: as §1

[4] = test system: blackgrass; assay type: in vivo, Alopecurus myosuroides; conditions: for Plant response rating, Blackgrass: 0 to 10 scale
Method in brief: as §1

[5] = test system: cheatgrass; assay type: in vivo, Bromus secalinus; conditions: for Plant response rating, Cheatgrass: 0 to 10 scale
Method in brief: as §1

[6] = test system: chickweed; assay type: in vivo, Stellaria media; conditions: for Plant response rating, Chickweed: 0 to 10 scale
Method in brief: as §1

[7] = test system: cocklebur; assay type: in vivo, Xanthium pensylvanicum; conditions: for Plant response rating, Cocklebur: 0 to 10 scale
Method in brief: as §1

[8] = test system: corn; assay type: in vivo, Zea mays; conditions: for Plant response rating, Corn: 0 to 10 scale
Method in brief: as §1

[9] = test system: cotton; assay type: in vivo, Gossypium hirsutum; conditions: for Plant response rating, Cotton: 0 to 10 scale
Method in brief: as §1

[10] = test system: crabgrass; assay type: in vivo, Digitaria spp.; conditions: for Plant response rating, Crabgrass: 0 to 10 scale
Method in brief: as §1

[11] = test system: giant foxtail; assay type: in vivo, Setaria faberii; conditions: for Plant response rating, Giant foxtail: 0 to 10 scale
Method in brief: as §1

[12] = test system: lambsquarters; assay type: in vivo, Chenopodium album; conditions: for Plant response rating, Lambsquarter: 0 to 10 scale
Method in brief: as §1

[13] = test system: morningglory; assay type: in vivo, Ipomoea hederacea; conditions: for Plant response rating, Morningglory: 0 to 10 scale
Method in brief: as §1

[14] = test system: rape; assay type: in vivo, Brassica napus; conditions: for Plant response rating, Rape: 0 to 10 scale
Method in brief: as §1

[15] = test system: rice; assay type: in vivo, Oryza sativa; conditions: for Plant response rating, Rice: 0 to 10 scale
Method in brief: as §1

[16] = test system: sorghum; assay type: in vivo, Sorghum bicolor; conditions: for Plant response rating, Sorghum: 0 to 10 scale
Method in brief: as §1

[17] = test system: soybean; assay type: in vivo, Glycine max; conditions: for Plant response rating, Soybean: 0 to 10 scale
Method in brief: as §1

[18] = test system: sugar beet; assay type: in vivo, Beta vulgaris; conditions: for Plant response rating, Sugar beet: 0 to 10 scale
Method in brief: as §1

[19] = test system: velvetleaf; assay type: in vivo, Abutilon theophrasti; conditions: for Plant response rating, Velvetleaf: 0 to 10 scale
Method in brief: as §1

[20] = test system: wheat; assay type: in vivo, Triticum aestivum; conditions: for Plant response rating, Wheat: 0 to 10 scale
Method in brief: as §1

[21] = test system: wild buckwheat; assay type: in vivo, Polygonum convolvulus; conditions: for Plant response rating, Wild buckwheat: 0 to 10 scale
Method in brief: as §1

[22] = test system: wild oat; assay type: in vivo, Avena fatua; conditions: for Plant response rating, Wild oat: 0 to 10 scale
Method in brief: as §1

[23] = test system: purple nutsedge; assay type: in vivo, Cyperus rotundus; conditions: for Plant response rating, Nutsedge: 0 to 10 scale
Method in brief: as §1

Oc1cc(-c2nn3c(c2Br)CCCC3)c(F)cc1Cl [Compound 81]
Plant response rating, Barley ([1]; POSTEMERGENCE, Rate 50 g/ha): 3 | Plant response rating, Barley ([1]; PREEMERGENCE, Rate 50 g/ha): 0 | Plant response rating (0 to 10 scale), Barley ([1]; PREEMERGENCE, Rate 200 g/ha): 0 | Plant response rating, Barley ([1]; Rate 200 g/ha, POSTEMERGENCE): 3 | Plant response rating, Barnyardgrass ([2]; POSTEMERGENCE, Rate 50 g/ha): 8 | Plant response rating, Barnyardgrass ([2]; PREEMERGENCE, Rate 50 g/ha): 0 | Plant response rating (0 to 10 scale), Barnyardgrass ([2]; PREEMERGENCE, Rate 200 g/ha): 0 | Plant response rating, Barnyardgrass ([2]; Rate 200 g/ha, POSTEMERGENCE): 7 | Plant response rating, Bedstraw ([3]; POSTEMERGENCE, Rate 50 g/ha): 9 | Plant response rating, Bedstraw ([3]; PREEMERGENCE, Rate 50 g/ha): 0 | Plant response rating (0 to 10 scale), Bedstraw ([3]; PREEMERGENCE, Rate 200 g/ha): 9 | Plant response rating, Bedstraw ([3]; Rate 200 g/ha, POSTEMERGENCE): 10 | Plant response rating, Blackgrass ([4]; POSTEMERGENCE, Rate 50 g/ha): 2 | Plant response rating, Blackgrass ([4]; PREEMERGENCE, Rate 50 g/ha): 0 | Plant response rating (0 to 10 scale), Blackgrass ([4]; PREEMERGENCE, Rate 200 g/ha): 3 | Plant response rating, Blackgrass ([4]; Rate 200 g/ha, POSTEMERGENCE): 4 | Plant response rating, Cheatgrass ([5]; POSTEMERGENCE, Rate 50 g/ha): 3 | Plant response rating, Cheatgrass ([5]; PREEMERGENCE, Rate 50 g/ha): 0 | Plant response rating (0 to 10 scale), Cheatgrass ([5]; PREEMERGENCE, Rate 200 g/ha): 4 | Plant response rating, Cheatgrass ([5]; Rate 200 g/ha, POSTEMERGENCE): 4 | Plant response rating, Chickweed ([6]; POSTEMERGENCE, Rate 50 g/ha): 2 | Plant response rating, Chickweed ([6]; PREEMERGENCE, Rate 50 g/ha): 0 | Plant response rating (0 to 10 scale), Chickweed ([6]; PREEMERGENCE, Rate 200 g/ha): 9 | Plant response rating, Chickweed ([6]; Rate 200 g/ha, POSTEMERGENCE): 3 | Plant response rating, Cocklebur ([7]; POSTEMERGENCE, Rate 50 g/ha): 8 | Plant response rating, Cocklebur ([7]; PREEMERGENCE, Rate 50 g/ha): 0 | Plant response rating (0 to 10 scale), Cocklebur ([7]; PREEMERGENCE, Rate 200 g/ha): 0 | Plant response rating, Cocklebur ([7]; Rate 200 g/ha, POSTEMERGENCE): 10 | Plant response rating, Corn ([8]; POSTEMERGENCE, Rate 50 g/ha): 2 | Plant response rating, Corn ([8]; PREEMERGENCE, Rate 50 g/ha): 0 | Plant response rating (0 to 10 scale), Corn ([8]; PREEMERGENCE, Rate 200 g/ha): 0 | Plant response rating, Corn ([8]; Rate 200 g/ha, POSTEMERGENCE): 3 | Plant response rating, Cotton ([9]; POSTEMERGENCE, Rate 50 g/ha): 10 | Plant response rating, Cotton ([9]; PREEMERGENCE, Rate 50 g/ha): 0 | Plant response rating (0 to 10 scale), Cotton ([9]; PREEMERGENCE, Rate 200 g/ha): 0 | Plant response rating, Cotton ([9]; Rate 200 g/ha, POSTEMERGENCE): 10 | Plant response rating, Crabgrass ([10]; POSTEMERGENCE, Rate 50 g/ha): 4 | Plant response rating, Crabgrass ([10]; PREEMERGENCE, Rate 50 g/ha): 0 | Plant response rating (0 to 10 scale), Crabgrass ([10]; PREEMERGENCE, Rate 200 g/ha): 0 | Plant response rating, Crabgrass ([10]; Rate 200 g/ha, POSTEMERGENCE): 6 | Plant response rating, Giant foxtail ([11]; POSTEMERGENCE, Rate 50 g/ha): 4 | Plant response rating, Giant foxtail ([11]; PREEMERGENCE, Rate 50 g/ha): 0 | Plant response rating (0 to 10 scale), Giant foxtail ([11]; PREEMERGENCE, Rate 200 g/ha): 2 | Plant response rating, Giant foxtail ([11]; Rate 200 g/ha, POSTEMERGENCE): 8 | Plant response rating, Lambsquarter ([12]; POSTEMERGENCE, Rate 50 g/ha): 10 | Plant response rating, Lambsquarter ([12]; PREEMERGENCE, Rate 50 g/ha): 9 | Plant response rating (0 to 10 scale), Lambsquarter ([12]; PREEMERGENCE, Rate 200 g/ha): 10 | Plant response rating, Lambsquarter ([12]; Rate 200 g/ha, POSTEMERGENCE): 10 | Plant response rating, Morningglory ([13]; POSTEMERGENCE, Rate 50 g/ha): 9 | Plant response rating, Morningglory ([13]; PREEMERGENCE, Rate 50 g/ha): 0 | Plant response rating (0 to 10 scale), Morningglory ([13]; PREEMERGENCE, Rate 200 g/ha): 0 | Plant response rating, Morningglory ([13]; Rate 200 g/ha, POSTEMERGENCE): 10 | Plant response rating, Rape ([14]; POSTEMERGENCE, Rate 50 g/ha): 3 | Plant response rating, Rape ([14]; PREEMERGENCE, Rate 50 g/ha): 0 | Plant response rating (0 to 10 scale), Rape ([14]; PREEMERGENCE, Rate 200 g/ha): 7 | Plant response rating, Rape ([14]; Rate 200 g/ha, POSTEMERGENCE): 7 | Plant response rating, Rice ([15]; POSTEMERGENCE, Rate 50 g/ha): 6 | Plant response rating, Rice ([15]; PREEMERGENCE, Rate 50 g/ha): 0 | Plant response rating (0 to 10 scale), Rice ([15]; PREEMERGENCE, Rate 200 g/ha): 0 | Plant response rating, Rice ([15]; Rate 200 g/ha, POSTEMERGENCE): 6 | Plant response rating, Sorghum ([16]; POSTEMERGENCE, Rate 50 g/ha): 3 | Plant response rating, Sorghum ([16]; PREEMERGENCE, Rate 50 g/ha): 0 | Plant response rating (0 to 10 scale), Sorghum ([16]; PREEMERGENCE, Rate 200 g/ha): 0 | Plant response rating, Sorghum ([16]; Rate 200 g/ha, POSTEMERGENCE): 3 | Plant response rating, Soybean ([17]; POSTEMERGENCE, Rate 50 g/ha): 6 | Plant response rating, Soybean ([17]; PREEMERGENCE, Rate 50 g/ha): 0 | Plant response rating (0 to 10 scale), Soybean ([17]; PREEMERGENCE, Rate 200 g/ha): 0 | Plant response rating, Soybean ([17]; Rate 200 g/ha, POSTEMERGENCE): 7 | Plant response rating, Sugar beet ([18]; POSTEMERGENCE, Rate 50 g/ha): 10 | Plant response rating, Sugar beet ([18]; PREEMERGENCE, Rate 50 g/ha): 0 | Plant response rating (0 to 10 scale), Sugar beet ([18]; PREEMERGENCE, Rate 200 g/ha): 9 | Plant response rating, Sugar beet ([18]; Rate 200 g/ha, POSTEMERGENCE): 10 | Plant response rating, Velvetleaf ([19]; POSTEMERGENCE, Rate 50 g/ha): 9 | Plant response rating, Velvetleaf ([19]; PREEMERGENCE, Rate 50 g/ha): 3 | Plant response rating (0 to 10 scale), Velvetleaf ([19]; PREEMERGENCE, Rate 200 g/ha): 10 | Plant response rating, Velvetleaf ([19]; Rate 200 g/ha, POSTEMERGENCE): 10 | Plant response rating, Wheat ([20]; POSTEMERGENCE, Rate 50 g/ha): 3 | Plant response rating, Wheat ([20]; PREEMERGENCE, Rate 50 g/ha): 0 | Plant response rating (0 to 10 scale), Wheat ([20]; PREEMERGENCE, Rate 200 g/ha): 2 | Plant response rating, Wheat ([20]; Rate 200 g/ha, POSTEMERGENCE): 4 | Plant response rating, Wild buckwheat ([21]; POSTEMERGENCE, Rate 50 g/ha): 10 | Plant response rating, Wild buckwheat ([21]; PREEMERGENCE, Rate 50 g/ha): 0 | Plant response rating (0 to 10 scale), Wild buckwheat ([21]; PREEMERGENCE, Rate 200 g/ha): 10 | Plant response rating, Wild buckwheat ([21]; Rate 200 g/ha, POSTEMERGENCE): 10 | Plant response rating, Wild oat ([22]; POSTEMERGENCE, Rate 50 g/ha): 2 | Plant response rating, Wild oat ([22]; PREEMERGENCE, Rate 50 g/ha): 0 | Plant response rating (0 to 10 scale), Wild oat ([22]; PREEMERGENCE, Rate 200 g/ha): 3 | Plant response rating, Wild oat ([22]; Rate 200 g/ha, POSTEMERGENCE): 3 | Plant response rating, Nutsedge ([23]; PREEMERGENCE, Rate 50 g/ha): 0 | Plant response rating (0 to 10 scale), Nutsedge ([23]; PREEMERGENCE, Rate 200 g/ha): 0 | Plant response rating, Nutsedge ([23]; Rate 200 g/ha, POSTEMERGENCE): 3
